Measured values taken from patent publication US11753410B2, “Hormone receptor modulators for treating metabolic mutagenic and fibrotic conditions and disorders” (priority 2017, dated 2023).

Target: T1, ligand binding domain of human FXR (Homo sapiens, UniProt Q96RI1)
T1 construct: purchased Thermofisher (LanthaScreen) PV4833
T1 sequence (Q96RI1 262-486 limits assumed): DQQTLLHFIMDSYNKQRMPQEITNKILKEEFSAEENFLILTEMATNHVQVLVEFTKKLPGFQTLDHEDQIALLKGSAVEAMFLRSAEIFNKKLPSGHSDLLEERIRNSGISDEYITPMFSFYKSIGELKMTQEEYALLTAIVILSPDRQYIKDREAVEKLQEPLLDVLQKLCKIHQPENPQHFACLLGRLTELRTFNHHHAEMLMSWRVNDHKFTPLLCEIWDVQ
Assay: biochemical
Details: for Emax: extent of activation relative to GW4064, read-out: Ligand Binding % Efficacy; for EC50: −log EC50, concentration required to produce 50% activation, FRET 520 nm/495 nm, 1 hour at room temperature, read-out: Ligand Binding pEC50 (converted)
Experimental: The affinity of FXR ligands for the ligand binding domain of FXR was determined using a commercially available human FXR ligand binding assay (LanthaScreen, Thermofisher Cat #PV4833). […] Binding of FXR ligands to the FXR ligand binding domain promotes binding of the fluorescein-labelled SRC2-2 peptide. This causes a FRET signal between the terbium-labelled anti-GST antibody and the fluorescein-labelled SRC peptide which are both bound to the FXR ligand binding domain.
Test compounds are dissolved in DMSO and a 3-fold serial dilution series is generated, then further diluted into assay buffer. The compounds are mixed with 5 nM GST-tagged FXR ligand binding domain, 5 nM Tb-labelled anti-GST antibody and 500 nM fluorescein-labelled SRC2-2 peptide in a pH7.4 buffer. The reaction is incubated at room temperature for 1 hour, then the FRET signal is measured as the ratio of the 520 nm/495 nm emission following excitation at 340 nm. The change in FRET signal is plotted against the test article concentration and fit to a 3-parameter logistical equation.

Row | SMILES | Emax | EC50
1 | O=C(O)c1c(F)cc(N2C[C@@H]3C[C@H]2C[C@H]3OCc2c(C3CC3)cnn2-c2c(Cl)cccc2Cl)cc1F [Compound I-3, 4-[(1S,4S,5R)-5-{[4-cyclopropyl-1-(2,6-dichlorophenyl)-1H-pyrazol-5-yl]methoxy}-2-azabicyclo[2.2.1]heptan-2-yl]-2,6-difluorobenzoic acid] | 156% | 39.8 nM
2 | O=C(O)c1ccc(N2C[C@@H]3C[C@H]2C[C@H]3OCc2c(C3CC3)cnn2-c2c(Cl)cccc2Cl)nc1 [Compound I-4, 6-[(1S,4S,5R)-5-{[4-cyclopropyl-1-(2,6-dichlorophenyl)-1H-pyrazol-5-yl]methoxy}-2-azabicyclo[2.2.1]heptan-2-yl]pyridine-3-carboxylic acid] | 132% | 100 nM
3 | O=C(O)c1ccc(N2C[C@@H]3C[C@H]2C[C@H]3OCc2c(C3CC3)cnn2-c2c(Cl)cccc2Cl)cn1 [Compound I-5, 5-[(1S,4S,5R)-5-{[4-cyclopropyl-1-(2,6-dichlorophenyl)-1H-pyrazol-5-yl]methoxy}-2-azabicyclo[2.2.1]heptan-2-yl]pyridine-2-carboxylic acid] | 119% | 251 nM
4 | O=C(O)c1ncc(N2C[C@@H]3C[C@H]2C[C@H]3OCc2c(C3CC3)cnn2-c2c(Cl)cccc2Cl)cn1 [Compound I-6, 5-[(1S,4S,5R)-5-{[4-cyclopropyl-1-(2,6-dichlorophenyl)-1H-pyrazol-5-yl]methoxy}-2-azabicyclo[2.2.1]heptan-2-yl]pyrimidine-2-carboxylic acid] | 101% | –
5 | Cc1cccc(C)c1-n1ncc(C2CC2)c1CO[C@@H]1C[C@@H]2C[C@H]1CN2c1ccc(C(=O)O)c(F)c1 [Compound I-7, 4-[(1S,4S,5R)-5-{[4-cyclopropyl-1-(2,6-dimethylphenyl)-1H-pyrazol-5-yl]methoxy}-2-azabicyclo[2.2.1]heptan-2-yl]-2-fluorobenzoic acid] | 134% | 25.1 nM
6 | Cc1cccc(Cl)c1-n1ncc(C2CC2)c1CO[C@@H]1C[C@@H]2C[C@H]1CN2c1ccc(C(=O)O)c(F)c1 [Compound I-8, 4-[(1S,4S,5R)-5-{[1-(2-chloro-6-methylphenyl)-4-cyclopropyl-1H-pyrazol-5-yl]methoxy}-2-azabicyclo[2.2.1]heptan-2-yl]-2-fluorobenzoic acid] | 164% | 7.94 nM
7 | O=C(O)c1ccc(N2C[C@@H]3C[C@H]2C[C@H]3OCc2c(C3CC3)cnn2-c2c(F)cccc2Cl)cc1F [Compound I-9, 4-[(1S,4S,5R)-5-{[1-(2-chloro-6-fluorophenyl)-4-cyclopropyl-1H-pyrazol-5-yl]methoxy}-2-azabicyclo[2.2.1]heptan-2-yl]-2-fluorobenzoic acid] | 164% | 39.8 nM
8 | O=C(O)c1ccc(N2C(=O)[C@@H]3C[C@H]2C[C@H]3OCc2c(C3CC3)cnn2-c2c(Cl)cccc2Cl)cc1 [Compound I-11, 4-[(1S,4R,5R)-5-{[4-cyclopropyl-1-(2,6-dichlorophenyl)-1H-pyrazol-5-yl]methoxy}-3-oxo-2-azabicyclo[2.2.1]heptan-2-yl]benzoic acid] | 152% | 39.8 nM
9 | O=C(O)c1ccc(N2C(=O)[C@@H]3C[C@H]2C[C@H]3OCc2c(C3CC3)cnn2-c2c(Cl)cccc2Cl)cc1F [Compound I-12, 4-[(1S,4R,5R)-5-{[4-cyclopropyl-1-(2,6-dichlorophenyl)-1H-pyrazol-5-yl]methoxy}-3-oxo-2-azabicyclo[2.2.1]heptan-2-yl]-2-fluorobenzoic acid] | 176% | 39.8 nM
10 | O=C(O)c1ccc(N2C(=O)[C@@H]3C[C@H]2C[C@H]3OCc2c(C3CC3)cnn2-c2c(Cl)cccc2Cl)c(F)c1 [Compound I-13, 4-[(1S,4R,5R)-5-{[4-cyclopropyl-1-(2,6-dichlorophenyl)-1H-pyrazol-5-yl]methoxy}-3-oxo-2-azabicyclo[2.2.1]heptan-2-yl]-3-fluorobenzoic acid] | 142% | 158 nM
11 | C[C@@H]1[C@@H]2C[C@@H](C[C@H]2OCc2c(C3CC3)cnn2-c2c(Cl)cccc2Cl)N1c1ccc(C(=O)O)cc1 [Compound I-14, 4-[(1S,3R,4S,5R)-5-{[4-cyclopropyl-1-(2,6-dichlorophenyl)-1H-pyrazol-5-yl]methoxy}-3-methyl-2-azabicyclo[2.2.1]heptan-2-yl]benzoic acid] | 48% | 398 nM
12 | C[C@@H]1[C@@H]2C[C@@H](C[C@H]2OCc2c(C3CC3)cnn2-c2c(Cl)cccc2Cl)N1c1ccc(C(=O)O)c(F)c1 [Compound I-15, 4-[(1S,3R,4S,5R)-5-{[4-cyclopropyl-1-(2,6-dichlorophenyl)-1H-pyrazol-5-yl]methoxy}-3-methyl-2-azabicyclo[2.2.1]heptan-2-yl]-2-fluorobenzoic acid] | 44% | 1000 nM
13 | CC[C@@H]1[C@@H]2C[C@@H](C[C@H]2OCc2c(C3CC3)cnn2-c2c(Cl)cccc2Cl)N1c1ccc(C(=O)O)cc1 [Compound I-16, 4-[(1S,3R,4S,5R)-5-{[4-cyclopropyl-1-(2,6-dichlorophenyl)-1H-pyrazol-5-yl]methoxy}-3-ethyl-2-azabicyclo[2.2.1]heptan-2-yl]benzoic acid] | 52% | 1000 nM
14 | CC[C@H]1[C@H]2C[C@H](C[C@@H]2OCc2c(C3CC3)cnn2-c2c(Cl)cccc2Cl)N1c1ccc(C(=O)O)cc1 [Compound I-17, 4-[(1R,3S,4R,5S)-5-{[4-cyclopropyl-1-(2,6-dichlorophenyl)-1H-pyrazol-5-yl]methoxy}-3-ethyl-2-azabicyclo[2.2.1]heptan-2-yl]benzoic acid] | 15% | –
15 | CC[C@@H]1[C@@H]2C[C@@H](C[C@H]2OCc2c(C3CC3)cnn2-c2c(Cl)cccc2Cl)N1c1ccc(C(=O)O)c(F)c1 [Compound I-18, 4-[(1S,3R,4S,5R)-5-{[4-cyclopropyl-1-(2,6-dichlorophenyl)-1H-pyrazol-5-yl]methoxy}-3-ethyl-2-azabicyclo[2.2.1]heptan-2-yl]-2-fluorobenzoic acid] | 47% | –
16 | CC[C@H]1[C@H]2C[C@H](C[C@@H]2OCc2c(C3CC3)cnn2-c2c(Cl)cccc2Cl)N1c1ccc(C(=O)O)c(F)c1 [Compound I-19, 4-[(1R,3S,4R,5S)-5-{[4-cyclopropyl-1-(2,6-dichlorophenyl)-1H-pyrazol-5-yl]methoxy}-3-ethyl-2-azabicyclo[2.2.1]heptan-2-yl]-2-fluorobenzoic acid] | 30% | –
17 | CC1(C)CC(S(=O)(=O)NC(=O)c2ccc(N3C[C@@H]4C[C@H]3C[C@H]4OCc3c(C4CC4)cnn3-c3c(Cl)cccc3Cl)cc2)CCO1 (stereo partly drawn) [Compound I-21, 4-[(1S,4S,5R)-5-{[4-cyclopropyl-1-(2,6-dichlorophenyl)-1H-pyrazol-5-yl]methoxy}-2-azabicyclo[2.2.1]heptan-2-yl]-N-[(2,2-dimethyloxan-4-yl)sulfonyl]benzamide] | 174% | 1.58 nM
18 | O=C(NS(=O)(=O)C1CC1)c1ccc(N2C[C@@H]3C[C@H]2C[C@H]3OCc2c(C3CC3)cnn2-c2c(Cl)cccc2Cl)cc1 [Compound I-22, 4-((1S,4S,5R)-5-((4-cyclopropyl-1-(2,6-dichlorophenyl)-1H-pyrazol-5-yl)methoxy)-2-azabicyclo[2.2.1]heptan-2-yl)-N-(cyclopropylsulfonyl)benzamide] | 166% | 3.98 nM
19 | O=C(NS(=O)(=O)C1CCOCC1)c1ccc(N2C[C@@H]3C[C@H]2C[C@H]3OCc2c(C3CC3)cnn2-c2c(Cl)cccc2Cl)cn1 [Compound I-25, 5-((1S,4S,5R)-5-((4-cyclopropyl-1-(2,6-dichlorophenyl)-1H-pyrazol-5-yl)methoxy)-2-azabicyclo[2.2.1]heptan-2-yl)-N-((tetrahydro-2H-pyran-4-yl)sulfonyl)picolinamide] | 130% | 25.1 nM
20 | O=C(NS(=O)(=O)C1CCOCC1)c1ccc(N2C(=O)[C@@H]3C[C@H]2C[C@H]3OCc2c(C3CC3)cnn2-c2c(Cl)cccc2Cl)cc1 [Compound I-26, 4-((1S,4R,5R)-5-((4-cyclopropyl-1-(2,6-dichlorophenyl)-1H-pyrazol-5-yl)methoxy)-3-oxo-2-azabicyclo[2.2.1]heptan-2-yl)-N-((tetrahydro-2H-pyran-4-yl)sulfonyl)benzamide] | 169% | 10 nM
21 | O=C(NS(=O)(=O)C1CCOCC1)c1ccc(N2C(=O)[C@@H]3C[C@H]2C[C@H]3OCc2c(C3CC3)cnn2-c2c(Cl)cccc2Cl)cc1F [Compound I-27, 4-((1S,4R,5R)-5-((4-cyclopropyl-1-(2,6-dichlorophenyl)-1H-pyrazol-5-yl)methoxy)-3-oxo-2-azabicyclo[2.2.1]heptan-2-yl)-2-fluoro-N-((tetrahydro-2H-pyran-4-yl)sulfonyl)benzamide] | 185% | 5.01 nM
22 | C[C@@H]1[C@@H]2C[C@@H](C[C@H]2OCc2c(C3CC3)cnn2-c2c(Cl)cccc2Cl)N1c1ccc(C(=O)NS(=O)(=O)C2CCOCC2)c(F)c1 [Compound I-28, 4-((1S,3R,4S,5R)-5-((4-cyclopropyl-1-(2,6-dichlorophenyl)-1H-pyrazol-5-yl)methoxy)-3-methyl-2-azabicyclo[2.2.1]heptan-2-yl)-2-fluoro-N-((tetrahydro-2H-pyran-4-yl)sulfonyl)benzamide] | 56% | 398 nM
